Assay results taken from US20100119483A1, “PEPTIDE VIRAL ENTRY INHIBITORS” (Schering Corporation, priority 2004, published 2010).
“And” between values parts separate entries of the source, which are not always exact repeats. Equal entries are not always repeated.

Test system: HCV pseudoparticles
Assay: HCV pseudoparticle (HCVpp) entry assay in Huh7 hepatoma cells, luciferase readout
Format: cell-based, hepatitis C virus
Conditions: for % of control at ~30 uM: percentage of hepatitis C virus cellular entry at 30 μM peptide vs uninhibited control
Protocol: HCV pseudotype particle generation. Single cycle HCV pseudoparticles are composed of a replication-defective HIV genome and HCV envelope proteins. These pseudoparticles were made by transfecting 293T cells with 5 ug of each pNL43E-R-luc (Chen et al., J. Virol. 68(2):654-60 (1994)) and plasmid expressing HCV envelope proteins pCMV/E1-2 with profection transfection kit from Promega (Madison, Wis.). The medium was refreshed 12-24 hours after transfection and supernatant was collected 48 hours after transfection. The supernatant from a transfection of only pNL43E-R-luc was used each time as a control for non specific entry events.
Infection of hepatoma cell lines with HCV pseudotype particles and screen for inhibitory peptides. The hepatoma cells, Huh7, was seeded at 8000 cells in 90 ul medium in 96-well plate. In the case of the inhibitor screen, the inhibitor was incubated with cells for one hour at 37° C. and then 50 ul viral supernatant was added to the cells 24 hours after seeding. The viral stock was pre-tittered and diluted to yield approximately 10,000 to 20,000 RLU. The cells were incubated at 37° C. with 5% CO2 for additional 72 hours and were harvested for luciferase assay. Peptide stocks were prepared in 100% DMSO at 10 mg/ml and were first screened at 100 ug/ml and then a dose responsive curve was generated with 10 points 3-fold titration starting from 100 ug/ml.
The peptide of SEQ ID NO: 77 was first serial diluted by the factor of 3 in 100% DMSO from 100 ug/ml and then transferred to the assay plates at 100-fold dilution. The peptide was first incubated with cells and HCVpp (A) or HIVpp (B), respectively, for 30 minutes at […] in this experiment. Then, the medium containing the peptide was removed from the cells and virus with peptide was added to the cells. Cells were incubated for 72 hours and then were harvested for luciferase assay. Two separate trials were performed.
In addition, the peptide of SEQ ID NO: 77 was mutated at several positions and assayed in the HCV entry assay discussed above. […] The assays were performed essentially as described above.

[1] = 0.1 nM of peptide (printed for three rows), two values per peptide and row
[2] = 0.3 nM of peptide, two values per peptide
[3] = 1 nM of peptide, two values per peptide
[4] = 3 nM of peptide, two values per peptide
[5] = 10 nM of peptide, two values per peptide
[6] = 30 nM of peptide, two values per peptide
[7] = 100 nM of peptide, two values per peptide
[8] = 300 nM of peptide, two values per peptide
[9] = 10000 nM of peptide, two values per peptide
[10] = 30000 nM of peptide, two values per peptide

Substance	% control (HCVpp entry), alanine scanning [1]	% control (HCVpp entry), alanine scanning [2]	% control (HCVpp entry), alanine scanning [3]	% control (HCVpp entry), alanine scanning [4]	% control (HCVpp entry), alanine scanning [5]	% control (HCVpp entry), alanine scanning [6]	% control (HCVpp entry), alanine scanning [7]	% control (HCVpp entry), alanine scanning [8]	% control (HCVpp entry), alanine scanning [9]	% of control at ~30 uM [%]	% control (HCVpp entry), lysine scanning [1]	% control (HCVpp entry), lysine scanning [2]	% control (HCVpp entry), lysine scanning [3]	% control (HCVpp entry), lysine scanning [4]	% control (HCVpp entry), lysine scanning [5]	% control (HCVpp entry), lysine scanning [6]	% control (HCVpp entry), lysine scanning [8]	further results
A-I-K-W-E-Y-V-A-L-L-F-L-L (AIKWEYVALLFLL; HCV peptide) [SEQ ID NO: 93, Ala-scan]	91 % control and 83 % control and 80 % control and 104 % control and 134 % control and 81 % control	86 % control and 105 % control	85 % control and 87 % control	78 % control and 87 % control	71 % control and 67 % control	58 % control and 51 % control	47 % control and 42 % control	32 % control and 27 % control	41 % control and 32 % control	13	–	–	–	–	–	–	–	% control (HCVpp entry), alanine scanning [10]: 32 % control
A-I-K-W-E-Y-V-L-L-K-F-L-L (AIKWEYVLLKFLL; HCV peptide) [SEQ ID NO: 134]	–	–	–	–	–	–	–	–	–	–	80 % control and 96 % control and 108 % control and 75 % control and 138 % control and 79 % control	104 % control and 85 % control	128 % control and 81 % control	94 % control and 92 % control	105 % control and 77 % control	101 % control and 76 % control	75 % control and 68 % control	% control (HCVpp entry), lysine scanning [7]: 89 % control and 87 % control; % control (HCVpp entry), lysine scanning [9]: 60 % control and 47 % control; % control (HCVpp entry), lysine scanning [10]: 56 % control and 45 % control
A-I-K-W-E-P-V-L-L-L-F-L-L (AIKWEPVLLLFLL; HCV peptide) [SEQ ID NO: 120]	–	–	–	–	–	–	–	–	–	–	–	–	–	–	–	–	–	% control (HCVpp entry), proline scanning [1]: 82 % control and 78 % control and 102 % control and 80 % control and 101 % control and 117 % control; % control (HCVpp entry), proline scanning [2]: 90 % control and 75 % control; % control (HCVpp entry), proline scanning [3]: 91 % control and 75 % control; % control (HCVpp entry), proline scanning [4]: 66 % control and 76 % control; % control (HCVpp entry), proline scanning [5]: 73 % control and 76 % control; % control (HCVpp entry), proline scanning [6]: 72 % control and 40 % control; % control (HCVpp entry), proline scanning [7]: 39 % control; % control (HCVpp entry), proline scanning [8]: 33 % control and 39 % control; % control (HCVpp entry), proline scanning [9]: 24 % control; % control (HCVpp entry), proline scanning [10]: 38 % control and 42 % control
A-I-K-W-G-Y-V-L-L-L-F-L-L (AIKWGYVLLLFLL; HCV peptide) [SEQ ID NO: 84, Gly-scan]	–	–	–	–	–	–	–	–	–	19	–	–	–	–	–	–	–	% control (HCVpp entry), glycine scanning (0.00003 uM of peptide, two values per peptide and row): 118 % control and 84 % control and 87 % control and 110 % control; % control (HCVpp entry), glycine scanning (0.0001 uM of peptide, two values per peptide): 62 % control and 75 % control; % control (HCVpp entry), glycine scanning (0.0003 uM of peptide, two values per peptide): 91 % control and 81 % control; % control (HCVpp entry), glycine scanning (0.001 uM of peptide, two values per peptide): 74 % control and 73 % control; % control (HCVpp entry), glycine scanning (0.003 uM of peptide, two values per peptide): 70 % control; % control (HCVpp entry), glycine scanning (0.01 uM of peptide, two values per peptide): 72 % control and 53 % control; % control (HCVpp entry), glycine scanning (0.03 uM of peptide, two values per peptide): 62 % control and 52 % control; % control (HCVpp entry), glycine scanning (0.1 uM of peptide, two values per peptide): 41 % control and 39 % control; % control (HCVpp entry), glycine scanning (0.3 uM of peptide, two values per peptide): 37 % control and 57 % control; % control (HCVpp entry), glycine scanning (30 uM of peptide, two values per peptide): 22 % control and 38 % control
A-I-K-A-E-Y-V-L-L-L-F-L-L (AIKAEYVLLLFLL; HCV peptide) [SEQ ID NO: 89, Ala-scan]	76 % control and 84 % control and 95 % control and 104 % control and 105 % control and 96 % control	64 % control and 71 % control	96 % control and 85 % control	76 % control and 63 % control	57 % control and 63 % control	71 % control and 66 % control	38 % control and 41 % control	27 % control and 24 % control	17 % control and 24 % control	8	–	–	–	–	–	–	–	–
A-I-K-K-E-Y-V-L-L-L-F-L-L (AIKKEYVLLLFLL; HCV peptide) [SEQ ID NO: 128]	–	–	–	–	–	–	–	–	–	–	80 % control and 86 % control and 107 % control and 102 % control and 87 % control and 103 % control	64 % control and 88 % control	99 % control and 72 % control	84 % control and 81 % control	63 % control and 92 % control	59 % control and 55 % control	22 % control and 28 % control	% control (HCVpp entry), lysine scanning [7]: 52 % control and 46 % control; % control (HCVpp entry), lysine scanning [9]: 7 % control and 4 % control
A-A-K-W-E-Y-V-L-L-L-F-L-L (AAKWEYVLLLFLL; HCV peptide) [SEQ ID NO: 87, Ala-scan]	90 % control and 108 % control and 113 % control and 93 % control and 104 % control	84 % control and 75 % control	110 % control and 93 % control	92 % control and 68 % control	45 % control and 57 % control	42 % control and 51 % control	19 % control and 15 % control	16 % control and 13 % control	15 % control and 23 % control	14	–	–	–	–	–	–	–	% control (HCVpp entry), alanine scanning [10]: 11 % control and 6 % control
A-I-K-W-E-Y-V-L-L-P-F-L-L (AIKWEYVLLPFLL; HCV peptide) [SEQ ID NO: 124]	–	–	–	–	–	–	–	–	–	–	–	–	–	–	–	–	–	% control (HCVpp entry), proline scanning [1]: 87 % control and 98 % control and 89 % control and 104 % control and 109 % control and 97 % control; % control (HCVpp entry), proline scanning [2]: 74 % control and 88 % control; % control (HCVpp entry), proline scanning [3]: 89 % control and 102 % control; % control (HCVpp entry), proline scanning [4]: 80 % control and 86 % control; % control (HCVpp entry), proline scanning [5]: 67 % control and 102 % control; % control (HCVpp entry), proline scanning [6]: 48 % control and 71 % control; % control (HCVpp entry), proline scanning [7]: 66 % control and 83 % control; % control (HCVpp entry), proline scanning [8]: 85 % control and 68 % control; % control (HCVpp entry), proline scanning [9]: 85 % control and 60 % control; % control (HCVpp entry), proline scanning [10]: 98 % control and 67 % control
A-I-K-W-E-K-V-L-L-L-F-L-L (AIKWEKVLLLFLL; HCV peptide) [SEQ ID NO: 130]	–	–	–	–	–	–	–	–	–	–	122 % control and 84 % control and 106 % control and 96 % control and 105 % control and 93 % control	103 % control and 100 % control	114 % control and 89 % control	95 % control and 81 % control	90 % control and 102 % control	74 % control and 75 % control	33 % control and 19 % control	–
